Test results from patent US5866611A, “Therapeutic amines” (Zeneca Limited, priority 1993, dated 1999).
Counter-ions that a name gives are not always drawn.

Experiments:
[1] = test system: Squalene synthase; test: Inhibition of Squalene synthase; assay type: biochemical; settings: rat liver microsomal protein, 15 min, 37° C.
Procedure: (a) Inhibition of Squalene synthase
In this test, the ability of a compound to prevent the formation of squalene from a radioactive substrate (tritiated farnesyl pyrophosphate) is assessed.
The test compound is incubated at a concentration of 25 micromolar in 200 μl of a buffered solution containing potassium phosphate (50 mM), MgCl2 (4.95 mM), KF (9.9 mM), NADPH (0.9 mM) and rat liver microsomal protein (20 μg). Rat liver microsomes are prepared by the method described in published European Patent Application No. 324,421 and stored in liquid nitrogen prior to assay. Assay vials are kept at 37° C. throughout the incubation.
The reaction is started with the addition of the substrate (1-[^3 H]-farnesyl pyrophosphate), final concentration […], and stopped after 15 minutes reaction time with the addition of 50 μl of 4% KOH. The reaction products are separated from unreacted substrate after application to a C-18 octadecyl 1ccBond column (Analytichem Int product No. 617101). An aqueous fraction is eluted with 250 μl of 0.1M KOH. Squalene is then eluted with 1.0 ml 10% ethylacetate in hexane and radioactivity determined. The difference in radioactivity in the presence and absence of the test compound is used to determine the level of inhibition. […] The IC50 can then be determined from a plot of percentage inhibition against concentration of test compound.

[2] = test system: de novo hepatic cholesterol synthesis; test: Acute rat cholesterol synthesis assay; settings: acute in vivo, female rats, 14C-acetate ip, plasma cholesterol specific radioactivity, route for this compound not given
Procedure: (b) Acute rat cholesterol synthesis assay.
This is an acute in vivo test in the rat to measure de novo hepatic cholesterol synthesis from exogenously administered ^14 C-acetate.
Female rats (35-55 g) are housed in reverse lighting conditions (red light from 0200 h-1400 h) for a period of about 2 weeks prior to test. Animals are allowed free access to chow and drinking water throughout this period. At test, animals should weigh 125-150 g.
Test compounds may be administered by oral gavage, dissolved or suspended in 0.5% polysorbate, or by ip or iv dosing. Control animals receive vehicle alone. After 1 hour the rats are injected ip with 25 μCi [2-^14 C]-acetate (NEN DUPONT. specific activity, 45-60mCi/mmol NEC-085H, or AMERSHAN specific activity, 50-60 mCi/mmol CFA 14) in a volume of 0.25 ml saline (100 μCi/ml). After a further hour, rats are terminally anaesthetised with halothane and a blood sample obtained from the abdominal vena cava.
1ml of plasma is lyophilised and then saponified in 2ml ethanolic KOH (1 part 33% KOH, 9 parts ethanol) at […] for 2 hours. After addition of an equal quantity of water, non-saponifiable lipids are extracted with two 5ml volumes of hexane. The hexane extracts are evaporated to dryness and the residues dissolved in ethanol to determine cholesterol specific radioactivity. ED50 values can be determined in the standard way.

Compound: CCCCOc1ccc(OCCCNC(C)C)c(CCC)c1 [Example 2, N-isopropyl-3-(4-butoxy-2-propylphenoxy)propylamine]
- inhibition of squalene synthase ([1]; at a concentration of 25 μM): about 74%

Compound: CCCc1cc(NC(C)=O)ccc1OCCCNC(C)C [Example 95, 3-n-propyl-4-(3-[N-isopropylamino]propoxy)-acetanilide hydrochloride]
- inhibition of squalene synthase ([1]; at 2.5 μM): about 86%
- ED50 [2]: 27 mg/kg
